The source made the active and inactive calls.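 How the source made its calls: active means chemicals shown by follow-up kinetic tests to compete for rat estrogen receptor sites, with a measured inhibition constant; inconclusive means some binding seen but constant unmeasurable owing to poor solubility; inactive means no binding up to top dose, or binding unconfirmed.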

Chain of Estrogen receptor (Rattus norvegicus) (P06211 whole entry, looked up): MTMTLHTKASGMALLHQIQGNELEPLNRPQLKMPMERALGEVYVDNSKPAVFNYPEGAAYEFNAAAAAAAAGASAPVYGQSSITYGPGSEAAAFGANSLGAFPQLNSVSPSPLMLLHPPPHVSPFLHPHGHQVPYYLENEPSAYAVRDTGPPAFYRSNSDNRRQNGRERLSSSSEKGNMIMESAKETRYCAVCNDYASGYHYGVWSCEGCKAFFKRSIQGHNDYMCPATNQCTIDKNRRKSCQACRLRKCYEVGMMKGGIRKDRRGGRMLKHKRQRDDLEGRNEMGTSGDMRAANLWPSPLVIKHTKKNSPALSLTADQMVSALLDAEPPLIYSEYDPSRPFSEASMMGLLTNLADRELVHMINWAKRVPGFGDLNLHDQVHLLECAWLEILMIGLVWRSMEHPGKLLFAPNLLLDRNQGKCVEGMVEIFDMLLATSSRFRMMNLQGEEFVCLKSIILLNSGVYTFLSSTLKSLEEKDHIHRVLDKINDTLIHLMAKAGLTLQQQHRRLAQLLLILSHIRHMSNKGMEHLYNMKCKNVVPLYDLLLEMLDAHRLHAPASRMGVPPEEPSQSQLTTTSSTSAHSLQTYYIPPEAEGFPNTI

The first data set has as its target Estrogen receptor (Rattus norvegicus) (UniProt P06211). The data set is described as follows: DSSTox (KIERBL) EPA Estrogen Receptor Ki Binding Study (Laws et al.) Database. To be noted: Rat uterine cytosol ER, 3H-estradiol competitive binding. As for the experimental part:
This study was conducted by EPA researchers to evaluate the validity of the rat uterine cytosolic (RUC) estrogen receptor (ER) competitive binding assay for use in the Endocrine Disruption Screening Program (EDSP). The assay measures the ability of radiolabeled 17-beta-estradiol (3H-E2) to bind with RUC ER in the presence of increasing concentrations of a test chemical. The goal is to employ this in vitro assay as a 1st tier screening tool for assessing the potential of structurally diverse environmental chemicals to bind to the ER, as well as to support research efforts to develop computational models to predict ER binding. A distinguishing feature of the present study was the use of secondary experimental analysis of binding curves and determination of Ki values to confirm that measured IC50 values corresponded to true positive results. The study concluded that a number of experimental conditions can confound interpretation of IC50 values obtained from the RUC ER-binding assay data and lead to false positive results. In particular, some chemical treatments likely alter the stability of the assay by changing the buffer pH, denaturing ER, or disrupting the ER binding kinetics. […] The chemicals used in this study were selected as part of a validation test for two Quantitative Structure-Activity Relationship (QSAR) models designed to predict ER binding [Fed. Reg. 67(250), 79618, Dec. 30, 2002]. Several hundred chemicals were initially screened, including approximately 100 chemicals selected from among the High Production Volume (HPV) chemicals included in EPA's Toxic Substances Control Act (TSCA) inventory that were predicted to be positive for ER binding, with the rest selected at random from the TSCA inventory. All chemicals were initially tested in ER competitive binding assays by Battelle Pacific Northwest Laboratories, Richland, Washington [EPA Contract Number 68-W-99-033, Task 6]. Approximately 50 chemicals produced binding curves that: (1) strongly implied competitive inhibition of ER binding, or (2) produced partial curves or irregular (non-sigmoid) binding curves. These chemicals were further evaluated in an ER competitive binding assay with secondary analysis to confirm true competitive inhibition and to determine an experimental Ki [U.S. EPA Contract 3D-5967-NTEX]. The results of RUC ER screening for these 50 structurally diverse chemicals, for which secondary confirmatory analyses were performed, were published in the Main Citation (Laws et al., 2006, Tox. Sci. 94:46-56). The remaining 228 chemicals were designated as non-binders based on initial screening studies.
The DSSTox KIERBL data files include all published IC50 and Ki experimental results for the 50 chemicals included in the Main Citation (Laws et al., 2006) (denoted Group 1), as well as previously unpublished results for an additional 228 structually diverse TSCA chemicals for which no ER binding was observed (denoted Group 2. IC50 values were determined for 32 compounds in Group 1 as the concentration of a test chemical that inhibits the maximal specific binding of 0.33 nM radiolabeled (3H) 17-beta-estradiol (E2) to rat uterine cytosolic (RUC) estrogen receptor (ER) by 50%. Confirmation of binding status was accomplished by secondary analysis using Lineweaver-Burk plots and slope replots to determine true competitive inhibition and an experimental Ki value. Ki is the inhibition constant for the test chemical, i.e., the concentration of the test chemical that will bind to half the binding sites at equilibrium (displacing half of the probe-bound receptors), in the absence of radioligand or other competitors. Ki reported as Mean +/- Standard Error from n=2 experiments (see StandardError_Ki_n2) and is determined from Lineweaver-Burk plots over the tested dose range (TestedRange_microM). For more information see BindingCurve_Group and BindingCurve_Details. […]
On to `CN(C)c1ccc(C(=C2C=CC(=Nc3ccccc3)c3ccccc32)c2ccc(N(C)C)cc2)cc1`, for which the outcome was “inactive; none”.
Same read-out and setting: then `COC(=O)c1ccccc1S(=O)(=O)NC(=O)N(C)c1nc(C)nc(OC)n1`, with “inactive; none”; and `COCOC`, with “inactive; none”.
As to `CCCCCCCCCCCCCCCCCCN`, the outcome is “inactive; none”.
For `O=P(O)(O)CCCl`, the outcome is “inactive; none”.
Same read-out and setting: then `COc1ccccc1NC(=O)c1cc2ccccc2cc1O`, with “inactive; none”.
Same read-out and setting: then `COc1cc([N+](=O)[O-])ccc1N`, with “inactive; none”; and `CCC(CO)(CO)CO`, with “inactive; none”.
The same measure, in the same setting: then `Cc1cc(C)c(C)cc1C`, with “inactive; none”; and `O=C(O)c1ccc2cc(O)ccc2c1`, with “inactive; none”; and `C=CS(=O)(=O)O`, with “inactive; none”.
In the case of `CC(=O)c1ccc(O)cc1`, the outcome is “inactive; none”.
Still for that read-out and setting: in the case of `CCCCOCCCOC(=O)COc1ccc(Cl)cc1Cl` it was “inactive; none”; in that of `CC(C)COC(=O)C(C)C`, “inactive; none”.
For `CCCCCCCC[Si](Cl)(Cl)Cl`, the outcome was “inactive; none”.
The same measure, in the same setting: then `CCOC(=O)/C=C/c1ccc(/C=C/C(=O)OCC)cc1`, with “inactive; none”; and `O=C(OCc1ccccc1)c1ccccc1O`, with “inactive; incomplete”; and `Cc1ccc(C(=O)c2ccccc2)cc1`, with “inactive; incomplete”.
The same measure, in the same setting: in the case of `c1ccc(-c2ccccc2)cc1` it was “inactive; none”; in that of `Cc1ccc([N+](=O)[O-])c(C)c1`, “inactive; none”; in that of `Cc1ccc(C)c(O)c1C`, “inactive; none”.
Still for that read-out and setting: then `CCCCNCCCCCCNCCCC`, with “inactive; none”; and `ClCC1OCCO1`, with “inactive; none”.
Take `CCOC(=O)c1ccccc1C(=O)OCC`: the outcome is “inactive; none”.
Consider `OCCOCCOCCO`, for which the outcome is “inactive; none”.
For `Cc1cc(Cc2cc(C)cc(C(C)(C)C)c2O)c(O)c(C(C)(C)C)c1`, the outcome was “inactive; none”.
For `COCCO`, the outcome is “inactive; none”.
The same measure, in the same setting: in the case of `O=C(O)c1c(Cl)c(Cl)c(Cl)c(Cl)c1C1c2cc(Br)c(O)c(Br)c2Oc2c1cc(Br)c(O)c2Br` it was “inactive; none”.
Same read-out and setting: then `CCOc1ccc2c(c1)C(C)=CC(C)(C)N2`, with “inactive; none”; and `CC(C)(c1cc(Br)c(OCCO)c(Br)c1)c1cc(Br)c(OCCO)c(Br)c1`, with “inactive; none”.
With `COc1cc(S(=O)(=O)O)c(C)cc1N=Nc1c(O)ccc2cc(S(=O)(=O)O)ccc12`, the outcome is “inactive; none”.
The same measure, in the same setting: in the case of `N#Cc1cc([N+](=O)[O-])ccc1N` it was “inactive; none”.
On the same count and under the same terms, then `CCCCS`, with “inactive; none”; and `CCCCCCCCCCCCCCCCCCN=C=O`, with “inactive; none”; and `CCCCCCCCCCCCCCC(Br)C(=O)O` (stereo not given), with “inactive; incomplete”.
Regarding `CO[Si](CCCCl)(OC)OC`, the outcome is “inactive; none”.
Still for that read-out and setting: in the case of `CC(C)(C)[Si](C)(C)Cl` it was “inactive; none”; in that of `N#CCc1ccccc1`, “inactive; none”.
Same read-out and setting: in the case of `Fc1cccc(Cl)c1CCl` it was “inactive; none”; in that of `CC(c1cc(C(C)(C)C)cc(C(C)(C)C)c1O)c1cc(C(C)(C)C)cc(C(C)(C)C)c1O`, “inactive; none”; in that of `Nc1ccc(/C=C/c2ccc(N)cc2S(=O)(=O)O)c(S(=O)(=O)O)c1`, “inactive; none”.
Same read-out and setting: then `O=S(=O)(O)c1ccccc1Nc1ccc(C(=C2C=CC(=Nc3ccccc3)C=C2)c2ccc(Nc3ccccc3)cc2)cc1`, with “inactive; none”; and `CO[Si](CCCN)(OC)OC`, with “inactive; none”; and `CN1CSC(=S)N(C)C1`, with “inactive; none”.
Regarding `c1c[nH]cn1`, the outcome is “inactive; none”.
The same measure, in the same setting: in the case of `CC(C)(C)CC(C)(C)c1ccc(O)c(-n2nc3ccccc3n2)c1` it was “inactive; none”; in that of `OC1CCCCC1`, “inactive; none”.
The same measure, in the same setting: in the case of `O=C1CCC(=O)O1` it was “inactive; none”; in that of `CCC(=O)O`, “inactive; none”; in that of `CC1CCCCN1CCCOC(=O)c1ccc(Cl)c(Cl)c1` (stereo not given), “inactive; none”.
On the same count and under the same terms, in the case of `CCCCCOC(C)=O` it was “inactive; none”; in that of `O=C1CCC(=O)N1Br`, “inactive; none”.
With `CC(Cl)Cl`, the outcome was “inactive; none”.
On the same count and under the same terms, in the case of `CCOP(=S)(OCC)SCn1c(=O)oc2cc(Cl)ccc21` it was “inactive; none”; in that of `CC(C)N`, “inactive; none”.
The same measure, in the same setting: in the case of `O=C(OCc1ccccc1)C(=O)OCc1ccccc1` it was “inactive; none”; in that of `CCN(CC)c1nc(C)cc(OP(=S)(OC)OC)n1`, “inactive; none”; in that of `CC(C)Oc1cc(-n2nc(C(C)(C)C)oc2=O)c(Cl)cc1Cl`, “inactive; none”.
Same read-out and setting: then `Oc1ccc2ccccc2c1N=Nc1ccccc1`, with “inactive; none”; and `CCc1ccc(CC)cc1`, with “inactive; none”; and `CNC(=O)Oc1ccccc1OC(C)C`, with “inactive; none”.
For `Cc1cscn1`, the outcome is “inactive; none”.
Consider `O=C=NCc1cccc(CN=C=O)c1`, for which the outcome is “inactive; none”.
The same measure, in the same setting: in the case of `CN(C)Cc1cc(CN(C)C)c(O)c(CN(C)C)c1` it was “inactive; none”; in that of `Cc1cc[cH-]c1.[C-]#[O+].[C-]#[O+].[C-]#[O+].[Mn]`, “inactive; none”; in that of `CC(C)CC(=O)O`, “inactive; none”.
On the same count and under the same terms, then `CCCCCCCCCC#N`, with “inactive; none”.
On the same count and under the same terms, then `CCCCCCOC(C)=O`, with “inactive; none”; and `C[Si](O)(O)O`, with “inactive; none”; and `CCOC(=O)c1ccccc1`, with “inactive; none”.
As for `OC1OCCOC1O` (stereo not given), the outcome was “inactive; none”.
`NNC(=O)c1cccc(C(=O)NN)c1`: the outcome is “inactive; none”.
Still for that read-out and setting: in the case of `C1=CCCCC1` it was “inactive; none”.
Same read-out and setting: then `C=CC(=O)OCC(C)O` (stereo not given), with “inactive; none”; and `COc1ccc(C(=O)c2ccc(OC)cc2O)c(O)c1`, with “inactive; none”; and `CC(C)(C)c1cc(-n2nc3ccc(Cl)cc3n2)c(O)c(C(C)(C)C)c1`, with “inactive; none”.
On the same count and under the same terms, then `O=CCCl`, with “inactive; none”; and `OCCS`, with “inactive; none”.
In the case of `O=[N+]([O-])c1c(Cl)c(Cl)c(Cl)c(Cl)c1Cl`, the outcome is “inactive; none”.

Staying with this data set, now noted: Rat uterine cytosol ER, 3H-estradiol competitive binding; TestedRange_microM: 1-10.
Take `CCCCCCCCCCCCCCN(C)C`: the outcome is “inactive; complete”.

The data set is the same for the next values; noted with them: Rat uterine cytosol ER, 3H-estradiol competitive binding; TestedRange_microM: 3-30.
Turning to `CC(C)(c1ccccc1)c1ccc(O)cc1`, the Potency was 16.5 µM.

The data set is the same for the next values; noted with them: Rat uterine cytosol ER, 3H-estradiol competitive binding; TestedRange_microM: 10-100.
Regarding `O=C(c1ccccc1)c1ccc(O)c(O)c1O`, the Potency is 103 µM.
Turning to `CCCCCCCCCCCCCCCCCC[N+](C)(C)C`, the outcome was “inactive; irregular”.
For the molecule `O=S(=O)(c1ccc(O)cc1)c1ccc(O)cc1`, the Potency was 82.4 µM.

The data set is the same for the next values; noted with them: Rat uterine cytosol ER, 3H-estradiol competitive binding; TestedRange_microM: 30-200.
Consider `Cc1cc(O)ccc1Cl`, for which the Potency is 373 µM.

The values above are taken from PubChem BioAssay AID1576 (EPA DSSTox, 2009).
